Columns and labels:
human TLR7 = biological target: T1, human TLR7 (Homo sapiens, UniProt Q9NYK1); experiment: TLR7 inhibition reporter assay (HEK-Blue SEAP); type: cell-based; conditions: HEK-Blue cells overexpressing human TLR7, gardiquimod 7.5 μM, 22 hour incubation
T1 construct: host or cells: HEK-Blue cells
T1 sequence (Q9NYK1 27-1049): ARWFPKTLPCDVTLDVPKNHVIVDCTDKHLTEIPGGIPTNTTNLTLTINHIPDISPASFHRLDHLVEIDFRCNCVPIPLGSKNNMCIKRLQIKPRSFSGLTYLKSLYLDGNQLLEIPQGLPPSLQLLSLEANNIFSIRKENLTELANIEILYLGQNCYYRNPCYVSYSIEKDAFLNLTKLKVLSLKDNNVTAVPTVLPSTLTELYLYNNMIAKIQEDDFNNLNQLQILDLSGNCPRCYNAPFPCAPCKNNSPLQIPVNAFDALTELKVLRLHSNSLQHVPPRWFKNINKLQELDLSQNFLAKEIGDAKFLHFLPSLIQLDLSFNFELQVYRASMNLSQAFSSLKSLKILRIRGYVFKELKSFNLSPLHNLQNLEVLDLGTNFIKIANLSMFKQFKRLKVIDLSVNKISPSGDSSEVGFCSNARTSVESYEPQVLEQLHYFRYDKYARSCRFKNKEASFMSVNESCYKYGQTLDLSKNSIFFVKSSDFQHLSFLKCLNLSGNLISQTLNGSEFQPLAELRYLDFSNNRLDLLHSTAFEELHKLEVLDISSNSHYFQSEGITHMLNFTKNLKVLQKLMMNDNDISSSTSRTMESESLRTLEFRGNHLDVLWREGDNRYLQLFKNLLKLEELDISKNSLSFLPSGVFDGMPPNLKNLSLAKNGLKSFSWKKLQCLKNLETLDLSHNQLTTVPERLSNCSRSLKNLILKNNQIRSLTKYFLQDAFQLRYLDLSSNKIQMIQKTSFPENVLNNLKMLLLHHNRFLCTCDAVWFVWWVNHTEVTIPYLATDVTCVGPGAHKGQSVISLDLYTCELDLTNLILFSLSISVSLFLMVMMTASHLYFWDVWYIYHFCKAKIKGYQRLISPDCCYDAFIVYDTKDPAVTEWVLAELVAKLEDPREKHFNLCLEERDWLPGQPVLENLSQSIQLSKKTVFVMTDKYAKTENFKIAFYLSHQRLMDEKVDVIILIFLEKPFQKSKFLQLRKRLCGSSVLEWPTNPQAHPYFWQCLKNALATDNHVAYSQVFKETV
Procedure, shortened: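 HEK-Blue reporter cells (15,000/well TLR7, 20,000 TLR8) exposed to compound over 0.05 nM–50 μM, agonist-stimulated (R848 for TLR8, gardiquimod for TLR7), 22 h at 37 °C, 5% CO2. SEAP read with HEK-Blue Detection; % inhibition relative to agonist-plus-DMSO and known-inhibitor controls.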

human TLR8 = biological target: T2, human TLR8 (Homo sapiens, UniProt Q9NR97); experiment: TLR8 inhibition reporter assay (HEK-Blue SEAP); type: cell-based; conditions: HEK-Blue cells overexpressing human TLR8, R848 15.9 μM, 22 hour incubation
T2 construct: host or cells: HEK-Blue cells
T2 sequence (Q9NR97 27-1041): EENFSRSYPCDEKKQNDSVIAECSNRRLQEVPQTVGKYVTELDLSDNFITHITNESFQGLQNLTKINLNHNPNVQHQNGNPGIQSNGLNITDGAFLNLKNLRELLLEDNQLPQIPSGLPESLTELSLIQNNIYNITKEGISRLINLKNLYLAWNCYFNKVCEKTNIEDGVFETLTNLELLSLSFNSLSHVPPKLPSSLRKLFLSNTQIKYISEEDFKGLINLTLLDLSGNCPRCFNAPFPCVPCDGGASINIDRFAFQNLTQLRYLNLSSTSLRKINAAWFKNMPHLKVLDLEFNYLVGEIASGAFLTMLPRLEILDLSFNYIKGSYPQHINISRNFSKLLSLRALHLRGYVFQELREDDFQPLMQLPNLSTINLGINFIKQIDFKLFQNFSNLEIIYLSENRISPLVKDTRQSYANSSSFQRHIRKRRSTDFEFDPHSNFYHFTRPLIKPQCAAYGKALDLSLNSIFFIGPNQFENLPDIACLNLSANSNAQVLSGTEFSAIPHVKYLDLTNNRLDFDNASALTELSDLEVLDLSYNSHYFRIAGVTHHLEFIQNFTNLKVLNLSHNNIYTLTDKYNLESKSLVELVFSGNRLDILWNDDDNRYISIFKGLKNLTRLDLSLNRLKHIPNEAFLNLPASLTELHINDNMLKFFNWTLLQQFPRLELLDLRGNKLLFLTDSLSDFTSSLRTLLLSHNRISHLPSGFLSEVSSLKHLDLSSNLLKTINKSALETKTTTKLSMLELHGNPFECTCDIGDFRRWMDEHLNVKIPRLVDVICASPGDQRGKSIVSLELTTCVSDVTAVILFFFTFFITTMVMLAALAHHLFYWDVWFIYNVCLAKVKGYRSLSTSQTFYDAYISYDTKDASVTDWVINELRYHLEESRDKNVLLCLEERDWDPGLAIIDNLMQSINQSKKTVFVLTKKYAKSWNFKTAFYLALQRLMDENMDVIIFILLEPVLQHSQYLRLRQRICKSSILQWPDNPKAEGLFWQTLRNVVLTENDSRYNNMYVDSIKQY
Procedure, shortened: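 Agonists used: gardiquimod 7.5 μM (TLR7), R848 15.9 μM (TLR8), ODN2006 5 nM (TLR9), added after 30 min room-temperature compound pre-treatment (0.05 nM–50 μM) of receptor-overexpressing HEK-Blue cells. SEAP reporter (NF-κB/AP-1 driven) read after 22 h at 37 °C; inhibition scaled between agonist+DMSO and reference-inhibitor wells.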

| Compound | IC50 (human TLR7) | IC50 (human TLR8) |
| --- | --- | --- |
| Cc1cc2c(cc1-c1cc(C)c3ncnn3c1)[nH]c(=O)n2[C@@H]1CCCN(C(C)C)C1 [Example 17, (R)-1-(1-isopropylpiperidin-3-yl)-6-methyl-5-(8-methyl-[1,2,4]triazolo[1,5-a]pyridin-6-yl)-1,3-dihydro-2H-benzo[d]imidazol-2-one] | 13.1 nM | 14.5 nM |
| CCc1cc2c(cc1-c1cc(OC)c3ncnn3c1)[nH]c(=O)n2[C@@H]1CCCN(C(C)C)C1 [Example 172, (R)-6-ethyl-1-(1-isopropylpiperidin-3-yl)-5-(8-methoxy-[1,2,4]triazolo[1,5-a]pyridin-6-yl)-1,3-dihydro-2H-benzo[d]imidazol-2-one] | 1.45 nM | 1.75 nM |
| CCc1cc2c(cc1-c1cc(OC)c3ncnn3c1)[nH]c(=O)n2[C@@H]1CCCN(C2COC2)C1 [Example 173, (R)-6-ethyl-5-(8-methoxy-[1,2,4]triazolo[1,5-a]pyridin-6-yl)-1-(1-(oxetan-3-yl)piperidin-3-yl)-1,3-dihydro-2H-benzo[d]imidazol-2-one] | 32 nM | 18 nM |
| CCc1cc2c(cc1-c1cc(OC)c3ncnn3c1)[nH]c(=O)n2[C@@H]1CCCN(CC2CCOCC2)C1 [Example 175, (R)-6-ethyl-5-(8-methoxy-[1,2,4]triazolo[1,5-a]pyridin-6-yl)-1-(1-((tetrahydro-2H-pyran-4-yl)methyl)piperidin-3-yl)-1,3-dihydro-2H-benzo[d]imidazol-2-one] | 0.83 nM | 2.23 nM |
| CCc1cc2c(cc1-c1cc(OC)c3ncnn3c1)[nH]c(=O)n2[C@@H]1CCCN(CC(C)C)C1 [Example 177, (R)-6-ethyl-1-(1-isobutylpiperidin-3-yl)-5-(8-methoxy-[1,2,4]triazolo[1,5-a]pyridin-6-yl)-1,3-dihydro-2H-benzo[d]imidazol-2-one] | 1.07 nM | 4.34 nM |
| CCc1cc2c(cc1-c1cc(OC)c3ncnn3c1)[nH]c(=O)n2[C@@H]1CCCN(CC(CC)CC)C1 [Example 178, (R)-6-ethyl-1-(1-(2-ethylbutyl)piperidin-3-yl)-5-(8-methoxy-[1,2,4]triazolo[1,5-a]pyridin-6-yl)-1,3-dihydro-2H-benzo[d]imidazol-2-one] | 0.81 nM | 2.62 nM |

Results, then the compound that gave them:

| IC50 (human TLR7) | IC50 (human TLR8) | Compound |
| --- | --- | --- |
| 1.84 nM | 0.74 nM | CCc1cc2c(cc1-c1cc(OC)c3ncnn3c1)[nH]c(=O)n2[C@H]1CC[C@@H](N(CC)CC)CC1 [Example 169, 1-((1s,4s)-4-(diethylamino)cyclohexyl)-6-ethyl-5-(8-methoxy-[1,2,4]triazolo[1,5-a]pyridin-6-yl)-1,3-dihydro-2H-benzo[d]imidazol-2-one] |
| 6.25 nM | 1.27 nM | CCc1cc2c(cc1-c1cc(OC)c3ncnn3c1)[nH]c(=O)n2[C@H]1CC[C@@H](NC2COC2)CC1 [Example 170, 6-ethyl-5-(8-methoxy-[1,2,4]triazolo[1,5-a]pyridin-6-yl)-1-((1s,4s)-4-(oxetan-3-ylamino)cyclohexyl)-1,3-dihydro-2H-benzo[d]imidazol-2-one] |
| 4.56 nM | 3.03 nM | CCc1cc2c(cc1-c1cc(OC)c3ncnn3c1)[nH]c(=O)n2[C@@H]1CCCN(CC)C1 [Example 171, (R)-6-ethyl-1-(1-ethylpiperidin-3-yl)-5-(8-methoxy-[1,2,4]triazolo[1,5-a]pyridin-6-yl)-1,3-dihydro-2H-benzo[d]imidazol-2-one] |
| 1.14 nM | 1.39 nM | CCc1cc2c(cc1-c1cc(OC)c3ncnn3c1)[nH]c(=O)n2[C@@H]1CCCN(C)C1 [Example 174, (R)-6-ethyl-5-(8-methoxy-[1,2,4]triazolo[1,5-a]pyridin-6-yl)-1-(1-methylpiperidin-3-yl)-1,3-dihydro-2H-benzo[d]imidazol-2-one] |
| 1.06 nM | 2.48 nM | CCCN1CCC[C@@H](n2c(=O)[nH]c3cc(-c4cc(OC)c5ncnn5c4)c(CC)cc32)C1 [Example 179, (R)-6-ethyl-5-(8-methoxy-[1,2,4]triazolo[1,5-a]pyridin-6-yl)-1-(1-propylpiperidin-3-yl)-1,3-dihydro-2H-benzo[d]imidazol-2-one] |

Source: patent publication US12187723B2 (BRISTOL-MYERS SQUIBB COMPANY, priority 2019, dated 2025)
